Laboratory results taken from patent US10786451B2, “Process for preparing a dry powder formulation comprising an anticholinergic, a corticosteroid and a beta-adrenergic” (CHIESI FARMACEUTICI S.P.A., priority 2015, dated 2020).

Key:
[1] = Uniformity of distribution of the active ingredients in the blend (12 samples, HPLC); type: physicochemical
Experimental: In the context of the present application the flow properties were tested by measuring the flow rate through an orifice according to the method described in the European Pharmacopeia (Eur. Ph.) 8.6, 8th Edition, which is incorporated herein by reference in its entirety. […] It is usually determined according to known methods, for instance by taking samples from different parts of the powder and testing the component by HPLC or other equivalent analytical methods. The uniformity of distribution of the active ingredients was evaluated by withdrawing 12 samples from different parts of the blend and evaluated by HPLC.

[2] = Aerosol performance by Next Generation Impactor (NGI) from multidose dry powder inhaler; type: physicochemical
Excerpt: With the term “mid FPF” is defined as the fraction of delivered dose having a particle size comprised between […].
After aerosolization of 3 doses from the inhaler device, the NGI apparatus was disassembled and the amounts of drug deposited in the stages were recovered by washing with a solvent mixture and then quantified by High-Performance Liquid Chromatography (HPLC)

[3] = Particle size (volume diameter) by laser diffraction, Malvern apparatus; type: physicochemical; conditions: micronized material as used
Experimental: The size of the particles active is determined by measuring the characteristic equivalent sphere diameter, known as volume diameter, by laser diffraction. In the reported examples, the volume diameter has been determined using a Malvern apparatus. However, other equivalent apparatus may be used by the skilled person in the art.

[4] = formulations disclosed Table 3 of WO 2015/004243; cited from earlier work
[5] = Batch CY (Cyclomix), reference formulation per WO 2015/004243
[6] = Batch MF (mechano-fusion), reference formulation per WO 2015/004243
[7] = powder formulation of Example 2
[8] = powder formulation of Example 2, NGI, 3 doses
[9] = powder formulation of Example 2, between 2.0 and 5.0 micron
[10] = powder formulation of Example 2, particle size equal to or lower than 5.0 micron
[11] = powder formulation of Example 3
[12] = powder formulation of Example 3, NGI
[13] = powder formulation of Example 3, between 2.0 and 5.0 micron
[14] = powder formulation of Example 3, particle size equal to or lower than 5.0 micron

Q: For `CCC(=O)OCC(=O)[C@@]1(OC(=O)CC)[C@@H](C)C[C@H]2[C@@H]3CCC4=CC(=O)C=C[C@]4(C)[C@@]3(Cl)[C@@H](O)C[C@@]21C` [BDP, beclometasone dipropionate], which Uniformity of distribution ([1]; powder formulation of Example 2 (6 μg FF, 100 μg BDP, 12.5 μg GB per 10 mg carrier), mean value, RSD in next column) is on record?
A: The Uniformity of distribution was 101.8.

Q: And the Uniformity of distribution ([1]; powder formulation of Example 3 (6 μg FF, 100 μg BDP, 25 μg GB per 10 mg carrier))?
A: Its Uniformity of distribution is 100.2.

Q: And the “Delivered Dose” value [2, 5]?
A: The value was 90.6 µg.

Q: And the “Extrafine Particle Fraction <2 μm” value [2, 5]?
A: The value was 53.9%.

Q: What about the “Extrafine Particle Mass <2 μm” value [2, 5] of the same compound?
A: The value was 48.8 µg.

Q: What about the “Fine Particle Fraction” value [2, 5] of the same compound?
A: Its value is 71.2%.

Q: What about the “Fine Particle Mass” value [2, 5] of the same compound?
A: The value was 64.5 µg.

Q: And the MMAD [2, 5]?
A: Its MMAD is 1.08 μm.

Q: What about the “Mid Fine Particle Mass” value [2, 5] of the same compound?
A: Its value is 15.7 µg.

Q: What about the “Mid Fine particle Fraction” value [2, 5] of the same compound?
A: Its value is 17.3%.

Q: What about the “Delivered Dose” value [2, 6] of the same compound?
A: The value was 95.7 µg.

Q: And the “Extrafine Particle Fraction <2 μm” value [2, 6]?
A: Its value is 52.2%.

Q: What about the “Extrafine Particle Mass <2 μm” value [2, 6] of the same compound?
A: Its value is 50.0 µg.

Q: And the “Fine Particle Fraction” value [2, 6]?
A: Its value is 69.9%.

Q: And the “Fine Particle Mass” value [2, 6]?
A: Its value is 66.9 µg.

Q: And the MMAD [2, 6]?
A: The MMAD was 1.13 μm.

Q: And the “Mid Fine Particle Mass” value [2, 6]?
A: Its value is 16.9 µg.

Q: And the “Mid Fine particle Fraction” value [2, 6]?
A: The value was 17.7%.

Q: What about the “Extrafine Particle Fraction <1 μm” value [2, 7] of the same compound?
A: Its value is 28.7%.

Q: And the “Extrafine Particle Fraction <2 μm” value [2, 7]?
A: The value was 51.4%.

Q: And the “Extrafine Particle Mass <1 μm” value [2, 7]?
A: The value was 27.9 µg.

Q: What about the “Extrafine Particle Mass <2 μm” value [2, 7] of the same compound?
A: The value was 50 µg.

Q: What about the “Fine Particle Fraction” value [2, 7] of the same compound?
A: The value was 69.4%.

Q: And the MMAD [2, 7]?
A: Its MMAD is 1.25 μm.

Q: And the “Delivered Dose” value [2, 8]?
A: Its value is 97.4 µg.

Q: And the “Mid Fine Particle Mass” value [2, 9]?
A: The value was 17.6 µg.

Q: What about the “Mid Fine particle Fraction” value [2, 9] of the same compound?
A: The value was 18%.

Q: And the “Fine Particle Mass” value [2, 10]?
A: The value was 67.6 µg.

Q: And the “Extrafine Particle Fraction <1 μm” value [2, 11]?
A: The value was 16.2%.

Q: What about the “Extrafine Particle Fraction <2 μm” value [2, 11] of the same compound?
A: Its value is 40.3%.

Q: And the “Extrafine Particle Mass <1 μm” value [2, 11]?
A: The value was 13.1 µg.

Q: And the “Extrafine Particle Mass <2 μm” value [2, 11]?
A: The value was 32.7 µg.

Q: And the “Fine Particle Fraction” value [2, 11]?
A: Its value is 61.8%.

Q: And the MMAD [2, 11]?
A: The MMAD was 1.62 μm.

Q: And the “Delivered Dose” value [2, 12]?
A: Its value is 80.9 µg.

Q: What about the “Mid Fine Particle Mass” value [2, 13] of the same compound?
A: Its value is 17.3 µg.

Q: And the “Mid Fine particle Fraction” value [2, 13]?
A: The value was 21.4%.

Q: What about the “Fine Particle Mass” value [2, 14] of the same compound?
A: Its value is 50.0 µg.

Q: And the “particle size d(v0.1)” value [3]?
A: The value was 0.7 micron.

Q: What about the “particle size d(v0.5)” value [3] of the same compound?
A: Its value is 1.5 micron.

Q: And the “particle size d(v0.9)” value [3]?
A: The value was 2.8 micron.

Q: For `O.OC[C@H]1O[C@@H](O[C@H]2[C@H](O)[C@@H](O)[C@@H](O)O[C@@H]2CO)[C@H](O)[C@@H](O)[C@H]1O` [Micronized alpha-lactose monohydrate, alpha-lactose monohydrate], which “particle size d(v0.1)” value [3] is on record?
A: Its value is 1.7 micron.

Q: And the “particle size d(v0.5)” value [3]?
A: Its value is 4.3 micron.

Q: And the “particle size d(v0.9)” value [3]?
A: The value was 9.8 micron.

Q: Which results are given for `C[N+]1(C)CCC(OC(=O)C(O)(c2ccccc2)C2CCCC2)C1` (centres unmarked) [GB, Glycopyrronium bromide]?
A: Delivered Dose [2, 5]: 11.6 µg; Extrafine Particle Fraction <2 μm [2, 5]: 34.5%; Extrafine Particle Mass <2 μm [2, 5]: 4.0 µg; Fine Particle Fraction [2, 5]: 53.8%; Fine Particle Mass [2, 5]: 6.6 µg; MMAD [2, 5]: 1.78 μm; Mid Fine Particle Mass [2, 5]: 2.6 µg; Mid Fine particle Fraction [2, 5]: 22.4%; Delivered Dose [2, 6]: 11.9 µg; Extrafine Particle Fraction <2 μm [2, 6]: 33.6%; Extrafine Particle Mass <2 μm [2, 6]: 4.0 µg; Fine Particle Fraction [2, 6]: 57.2%; Fine Particle Mass [2, 6]: 6.4 µg; MMAD [2, 6]: 1.75 μm; Mid Fine Particle Mass [2, 6]: 2.5 µg; Mid Fine particle Fraction [2, 6]: 21.0%; Extrafine Particle Fraction <1 μm [2, 7]: 15.4%; Extrafine Particle Fraction <2 μm [2, 7]: 37.6%; Extrafine Particle Mass <1 μm [2, 7]: 1.8 µg; Extrafine Particle Mass <2 μm [2, 7]: 4.39 µg; Fine Particle Fraction [2, 7]: 67.2%; MMAD [2, 7]: 1.92 μm; Delivered Dose [2, 8]: 11.66 µg; Mid Fine Particle Mass [2, 9]: 3.46 µg; Mid Fine particle Fraction [2, 9]: 29.6%; Mid Fine particle Fraction ([2]; powder formulation of Example 2, between 2.0 and 5.0 micron, listed as glycopyrrolate): about 30%; Fine Particle Mass [2, 10]: 7.85 µg; Extrafine Particle Fraction <1 μm [2, 11]: 8.7%; Extrafine Particle Fraction <2 μm [2, 11]: 27.4%; Extrafine Particle Mass <1 μm [2, 11]: 1.75 µg; Extrafine Particle Mass <2 μm [2, 11]: 5.49 µg; Fine Particle Fraction [2, 11]: 57.1%; MMAD [2, 11]: 2.15 μm; Delivered Dose [2, 12]: 20.03 µg; Mid Fine Particle Mass [2, 13]: 5.94 µg; Mid Fine particle Fraction [2, 13]: 29.7%; Mid Fine particle Fraction ([2]; powder formulation of Example 3, between 2.0 and 5.0 micron, listed as glycopyrrolate): about 30%; Fine Particle Mass [2, 14]: 11.43 µg; particle size d(v0.1) [3]: 0.39 micron; particle size d(v0.5) [3]: 1.91 micron; particle size d(v0.9) [3]: 4.77 micron; mid FPF [4]: about 20%
